Test results as given in patent US5585355A, “Method for increasing blood-ocular barrier permeability with permeabilizer peptides” (Alkermes, Inc., priority 1994, dated 1996).
“And” between values parts separate entries of the source, which are not always exact repeats. Equal entries are not always repeated. Where two headings read alike, the source gives them in different places.

Experiments:
[1] = Effect of A-7 on physiological functions; assay type: in vivo, guinea pig; conditions: for Blood Pressure / Body Weight / Heart Rate / Respirations/Minute: within first minute of infusion
[2] = system: blood-ocular barrier; conditions: for Uptake of [14C]-sucrose, % of plasma concentration (W/W) / KIN, unidirectional transport rate of [14C]-sucrose: A-7 1 μg/kg; for KIN, unidirectional transport rate of [14C]-sucrose: 3.0 min to 4.5 min
Method: Adult Hartley guinea pigs of either sex (250-300 g) were used.
Animals were anaesthetized with 6 mg/kg xylazine (Rompun®, Mobay Corp., Shawnee, Kans.) and 30 mg/kg ketamine (Vetacet®, Abeco Co., Inc., Fort Dodge, Iowa) before surgically exposing the neck vessels. […] The technique is briefly summarized here. A fine polyethylene catheter connected to the extracorporeal perfusion system by silicon tubings was inserted into the right common carotid artery. Immediately after the start of the perfusion, the contralateral carotid artery was ligated and both jugular veins cut to allow free drainage of the perfusate.
All tubing was low gas permeable silicon, and all metal was medical grade stainless steel. The temperature and perfusion pressure were continuously recorded, and the acid-base status frequently monitored. Perfusion pressure was kept slightly above the animal's blood pressure to eliminate any possible ingress from the systemic circulation.
Isotopically labeled [^14 C]-sucrose was introduced into the perfusion circuit after the 5 minute infusion at a rate of 0.4 to 0.6 μCi/ml/min, over periods ranging from 1.5 min to 4.5 min. In all experiments, the perfusion was terminated by severing the right common carotid artery and decapitating the animal.
The eyes were enucleated and the lenses rapidly excised via a lateral approach 1.5 mm posteriorly to the limbus. The lenses were blotted on filter paper to remove any adhering aqueous humor and to avoid epithelial contamination by aqueous radioactivity. Corneas were dissected circumferentially about 0.5 mm anteriorly to the limbus. After removal of the anterior segment of the eye, the vitreous body was dissected from the retinal surface. Retinas were scooped from the lying epithelium. All tissues were blotted after dissection to minimize contamination by adjacent tissue layers and/or fluids. Samples of plasma, aqueous humor, lens, cornea, retina and posterior vitreous were treated with 2 ml Beckman Tissue Solubilizer (BTS)-450, and 16 ml of scintillant (Beckman Ready Organic, Fullerton, Calif.). Radioactivity was determined in a Beckman LS-7500 liquid scintillation spectrometer.
(When data are expressed as percentages the ratios were multiplied by 100.) The following equations were used to calculate ratios:
Caqueous or Cvitreous /Cplasma =(DPM/ml aqueous or vitreous)/(DPM/ml plasma)
Clens or Ccornea or Cretina /Cplasma =(DPM/g lens or cornea or retina)/(DPM/ml plasma)
Multiple-time uptake series were performed, and the unidirectional transport rate constant, KIN, and initial volume of tracer distribution, VI, were calculated using the following equations where T is the perfusion time:
KIN (plasma-aqueous or vitreous)=[Caqueous or vitreous /Cplasma ]T+VI (aqueous or vitreous/plasma)
KIN (plasma-lens, cornea or retina)=[Clens, cornea or retina /Cplasma ]T+VI (lens cornea or retina/plasma)
The respective KIN and VI values were graphically estimated by linear regression analysis as a slope and ordinate intercept of the line corresponding to the best linear fit to experimental data points for the time period when there was no significant departure from linearity in studied compartments.
Results are presented as means±SE.

## Arginine-Proline-Hydroxyproline-Glycine-Thienylalanine-Serine-Proline-4-Me-Tyrosine-(CH2 NH)Arginine [A-7]
[1]; A-7 1 μg/kg
  Changes in body weight, respiration rate, blood pressure and heart rate: no significant changes
[1]; A-7 1 μg/kg body weight
  Blood Pressure: 75 mm Hg
  Body Weight: 283 g
  Heart Rate: 170 Beats Per Minute
  Respirations/Minute: 26
[1]; A-7 3 μg/kg body weight
  Blood Pressure: 90 mm Hg
  Body Weight: 283 g
  Heart Rate: 200 Beats Per Minute
  Respirations/Minute: 44
[1]; A-7 10 μg/kg body weight
  Blood Pressure: 100 mm Hg
  Body Weight: 285 g
  Heart Rate: Unmeasur-
  Respirations/Minute: 58
[2]; aqueous, 1.5 min after sucrose added
  Uptake of [14C]-sucrose, % of plasma concentration (W/W): 0.19 ± 0.01 % of Plasma Concentration (W/W
[2]; aqueous, 3.0 min after sucrose added
  Uptake of [14C]-sucrose, % of plasma concentration (W/W): 0.41 ± 0.18 % of Plasma Concentration (W/W
[2]; aqueous
  KIN, unidirectional transport rate of [14C]-sucrose: 9.13 ± 3.66 µL/min/g
[2]; aqueous, 4.5 min after sucrose added
  Uptake of [14C]-sucrose, % of plasma concentration (W/W): 1.79 ± 0.68 % of Plasma Concentration (W/W
[2]; cornea, 1.5 min after sucrose added
  Uptake of [14C]-sucrose, % of plasma concentration (W/W): 0.48 ± 0.19 % of Plasma Concentration (W/W
[2]; cornea, 3.0 min after sucrose added
  Uptake of [14C]-sucrose, % of plasma concentration (W/W): 1.01 ± 0.23 % of Plasma Concentration (W/W
[2]; cornea
  KIN, unidirectional transport rate of [14C]-sucrose: 16.20 ± 3.42 µL/min/g
[2]; cornea, 4.5 min after sucrose added, an outlier of 0.5% not included
  Uptake of [14C]-sucrose, % of plasma concentration (W/W): 3.44 ± 1.40 % of Plasma Concentration (W/W
[2]; lens
  KIN for sucrose, times higher in the presence of A-7: 6.5 times
  KIN, unidirectional transport rate of [14C]-sucrose: 0.130 ± 0.015 µL/min/g
[2]; lens, 1.5 min after sucrose added
  Uptake of [14C]-sucrose, % of plasma concentration (W/W): 0.03 ± 0.02 % of Plasma Concentration (W/W
[2]; lens, 3.0 min after sucrose added
  Uptake of [14C]-sucrose, % of plasma concentration (W/W): 0.05 ± 0.01 % of Plasma Concentration (W/W
[2]; lens, 4.5 min after sucrose added
  Uptake of [14C]-sucrose, % of plasma concentration (W/W): 0.07 ± 0.01 % of Plasma Concentration (W/W
[2]; retina
  KIN for sucrose, times higher in the presence of A-7: 6.7 times
  KIN, unidirectional transport rate of [14C]-sucrose: 4.27 ± 0.9 µL/min/g
[2]; retina, 1.5 min after sucrose added, 5 min arterial infusion
  Uptake of [14C]-sucrose, % of plasma concentration (W/W): 0.95 ± 0.30 % of Plasma Concentration (W/W
[2]; retina, 3.0 min after sucrose added, 5 min arterial infusion
  Uptake of [14C]-sucrose, % of plasma concentration (W/W): 1.76 ± 0.50 % of Plasma Concentration (W/W
[2]; retina, 4.5 min after sucrose added, 5 min arterial infusion
  Uptake of [14C]-sucrose, % of plasma concentration (W/W): 2.26 ± 0.56 % of Plasma Concentration (W/W
[2]; vitreous, 1.5 min after sucrose added
  Uptake of [14C]-sucrose, % of plasma concentration (W/W): 0.03 ± 0.018 % of Plasma Concentration (W/W
[2]; vitreous, 3.0 min after sucrose added
  Uptake of [14C]-sucrose, % of plasma concentration (W/W): 0.05 ± 0.01 % of Plasma Concentration (W/W
[2]; vitreous
  KIN, unidirectional transport rate of [14C]-sucrose: 0.84 µL/min/g and 0.84 ± 0.25 µL/min/g
[2]; vitreous, 4.5 min after sucrose added
  Uptake of [14C]-sucrose, % of plasma concentration (W/W): 0.18 ± 0.05 % of Plasma Concentration (W/W
[2]; vitreous, time points earlier than 4.5 minutes of VEP
  Effect on sucrose uptake by vitreous: did not affect
